In article PMC10938303 (Bioorganic & medicinal chemistry letters, 2022):

Legend:
[1] = In vitro clearance, rat; type: in vitro ADME
[2] = In vitro clearance, human; type: in vitro ADME
[3] = target: T1, hM5 (Homo sapiens, UniProt P08912); assay: Calcium mobilization assay with hM5-CHO cells, EC80 acetylcholine; type: cell-based; conditions: for hM5 IC50: hM5-CHO cells, EC80 acetylcholine, one experiment in triplicate
T1 sequence (P08912 1-532): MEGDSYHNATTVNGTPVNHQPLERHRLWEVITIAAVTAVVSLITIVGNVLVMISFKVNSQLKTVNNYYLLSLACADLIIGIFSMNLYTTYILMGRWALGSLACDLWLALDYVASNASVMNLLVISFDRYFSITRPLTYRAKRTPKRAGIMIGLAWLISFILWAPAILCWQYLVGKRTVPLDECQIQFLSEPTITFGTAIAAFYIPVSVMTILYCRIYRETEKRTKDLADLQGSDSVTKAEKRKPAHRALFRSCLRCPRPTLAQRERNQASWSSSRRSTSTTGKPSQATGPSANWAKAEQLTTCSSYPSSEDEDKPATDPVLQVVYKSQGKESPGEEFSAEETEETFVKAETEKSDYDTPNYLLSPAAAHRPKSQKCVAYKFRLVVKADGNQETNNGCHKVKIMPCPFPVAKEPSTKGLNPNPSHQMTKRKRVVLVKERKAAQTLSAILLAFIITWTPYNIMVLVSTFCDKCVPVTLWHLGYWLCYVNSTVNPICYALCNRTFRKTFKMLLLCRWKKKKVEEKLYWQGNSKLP

| SMILES | Predicted CLhep (r) [1] [mL/min/kg] | Predicted CLhep (h) [2] [mL/min/kg] | fold more potent than (S)-12a (12c) (hM5 IC50) ([3]; versus 12c) [fold] | hM5 IC50 [3] |
| --- | --- | --- | --- | --- |
| O=C(Nc1ccc2scnc2c1)C1CCN(S(=O)(=O)c2ccc3c(c2)CCO3)C1 (centres unmarked) [12a] | 55 | 16 | – | – |
| O=C(Nc1ccc2scnc2c1)C1CN(S(=O)(=O)c2ccc3c(c2)CCO3)C1 [12b] | 57 | 16 | – | – |
| O=C(Nc1ccc2scnc2c1)[C@H]1CCN(S(=O)(=O)c2ccc3c(c2)CCO3)C1 [12c] | 52 | 16 | – | – |
| O=C(Nc1ccc2scnc2c1)[C@@H]1CCN(S(=O)(=O)c2ccc3c(c2)CCO3)C1 [12d] | 59 | 15 | 21 | – |
| C[C@@H]1CN(S(=O)(=O)c2ccc3c(c2)CCO3)C[C@@H]1C(=O)Nc1ccc2scnc2c1 [12e] | 64 | 19 | – | – |
| C[C@H]1CN(S(=O)(=O)c2ccc3c(c2)CCO3)C[C@@H]1C(=O)Nc1ccc2scnc2c1 [12f] | 29 | 4 | – | – |
| O=C(Nc1ccc2scnc2c1)[C@H]1CN(S(=O)(=O)c2ccc3c(c2)CCO3)C[C@@H]1C(F)(F)F [12g] | – | – | – | inactive |
| O=C(Nc1ccc2scnc2c1)C12CC1CN(S(=O)(=O)c1ccc3c(c1)CCO3)C2 (centres unmarked) [12h] | 60 | 18 | – | – |

Now from value to molecule:

| Predicted CLhep (r) [1] [mL/min/kg] | Predicted CLhep (h) [2] [mL/min/kg] | fold more potent than (S)-12a (12c) (hM5 IC50) ([3]; versus 12c) [fold] | hM5 IC50 [3] | SMILES |
| --- | --- | --- | --- | --- |
| – | – | – | inactive | Cc1nn(C)cc1S(=O)(=O)N1CC[C@@H](C(=O)Nc2ccc3scnc3c2)C1 [17a] |
| – | – | – | inactive | Cn1cc(S(=O)(=O)N2CC[C@@H](C(=O)Nc3ccc4scnc4c3)C2)c(C(F)(F)F)n1 [17b] |
| – | – | – | inactive | O=C(Nc1ccc2scnc2c1)[C@@H]1CCN(S(=O)(=O)c2cccnc2)C1 [17c] |
| – | – | – | inactive | O=C(Nc1ccc2scnc2c1)[C@@H]1CCN(S(=O)(=O)c2ccc(Cl)nc2)C1 [17d] |
| 49 | 15 | – | – | [2H]C1([2H])Oc2ccc(S(=O)(=O)N3CC[C@@H](C(=O)Nc4ccc5scnc5c4)C3)cc2C1([2H])[2H] [17f] |
| 55 | 12 | – | – | O=C(Nc1ccc2scnc2c1)[C@@H]1CCN(S(=O)(=O)c2ccc3c(c2)OCO3)C1 [17g] |
| – | – | – | significantly less active | O=C(Nc1ccc2scnc2c1)[C@@H]1CCN(S(=O)(=O)c2ccc3c(c2)CCC3)C1 [17h] |
| 51 | 14 | – | – | O=C(Nc1ccc2scnc2c1)[C@@H]1CCN(S(=O)(=O)c2ccc3ncccc3c2)C1 [17i] |
| 29 | 13 | – | – | O=C(Nc1ccc2scnc2c1)[C@@H]1CCN(S(=O)(=O)c2ccc3ncsc3c2)C1 [17j] |
